Source: patent US9079970B2, “Methods and compositions for specific modulation of MCL-1” (Dana Farber Cancer Institute, Inc., priority 2008, dated 2015)
Entries after “also recorded” stand apart in the source; their conditions may differ. Where a SMILES comes first, the peptide text is derived from it. Bridges are numbered along the chain shown (N, C = ends). [ ]: non-standard residue; d: D form. The star is where a group is joined. S5 = C=CCCC[C@](C)(N)C(=O)O; Nle = CCCC[C@H](N)C(=O)O; Cbz = O=C(OCc1ccccc1)*; CH2F = FC*

Tests used:
[1] = tested on: Jurkat T-cell leukemia cells; test: Cell viability by MTT assay, Jurkat; format: cell-based
Description: (§1) For viability testing, OPM2 and Jurkat cells (4×10^4) were treated with the indicated agents in Opti-MEM media at 37° C. in a final volume of 100 μL. Cell viability was measured at 24 hours by MTT assay, for which cells were incubated with 20 μL thiazolyl blue tetrazolium bromide (5 mg/mL in DPBS) at 37° C. for 4 hours, the precipitate solubilized with 0.1 N HCl isopropanol (100 μL), and absorbance measured at 570 nm and 650 nm.

[2] = target: T1, Mcl-1 ΔNΔC (Homo sapiens, UniProt Q07820); test: MCL-1 Specific Binders | Mcl-1 ΔNΔC
T1 construct: GST (N, cleaved yes); made in house; host or cells: Escherichia coli BL21 (DE3), pGEX-4T
From the text: Table printed on a drawing sheet, FIGURE 9 A
Head of the field: MCL-1 Specific Binders | Mcl-1 ΔNΔC
(A) illustrates a table of KD values for MCL-1-specific and pan-anti-apoptotic binding SAHBs.
First copying reader's note: KD values with their ± error in the same cell; each column is one anti-apoptotic target protein.
Where the first naming reader finds the target: head: Mcl-1 ΔNΔC

[3] = tested on: MCL-1ΔNΔC, BCL-2ΔC, BCL-XLΔC, BCL-wΔC and BFL-1/A1ΔC; test: FPA selectivity across panel of anti-apoptotic proteins; format: binding; conditions: FPA against anti-apoptotic panel
Description: (§2) Binding assays were performed as previously described (Pitter et al., Methods Enzymol 446, 387 (2008). Briefly, FITC-SAHB (50 nM) was added to serial dilutions of FPLC-purified recombinant protein in binding buffer (50 mM Tris, 100 mM NaCl, pH 8.0). For competition assays, serial dilutions of acetylated MCL-1 SAHBs were mixed with FITC-BAK SAHB (25 nM), followed by addition of MCL-1ΔNΔC (100 nM) diluted in binding buffer (50 mM Tris, 100 mM NaCl, pH 8.0). Multiwell plates were incubated in the dark at room temperature until equilibrium was reached and fluorescence polarization (mP units) was measured by microplate reader (SpectraMax, Molecular Devices). For direct binding experiments, dissociation constants (KD) were calculated by nonlinear regression analysis of dose-response curves using Prism software (Graphpad). For competition experiments, Ki values were determined by nonlinear regression analysis of dose-response curves using a one-site competition model.
(§3) Compounds that bound MCL-1 with high affinity were analyzed for MCL-1 selectivity by measuring SAHB affinities for recombinant BCL-XLΔC, BCL-WΔC and BFL-1/A1ΔC (FIG. 8B). Recombinant carboxy-terminal deleted anti-apoptotic proteins were expressed using the pGEX-4T vector, and purified as described for rMCL-1. The purified proteins were incubated with FITC-SAHBs, and binding affinities were analyzed by fluorescence polarization assay as described above. […] Optionally, design and optimization of tailored SAHB compounds for anti-apoptotic targeting also employed computational modeling.
After the experiments set forth above, further members of the library of stabilized alpha-helices of BCL-2 domains (SAHBs) modeled after the BH3 domains of BCL-2 family proteins were generated in order to identify potent and selective inhibitors of MCL-1. The native alpha-helical structure of BH3 domains was reinforced by incorporating non-natural amino acids containing olefin tethers at the (i, i+4) positions of the non-interacting face, followed by ruthenium catalyzed olefin metathesis to yield a panel of stapled BH3 domains (FIG. 7). Fluorescence polarization assays (FPA) were performed to measure the binding affinity of fluorescently labeled SAHBs for recombinant human MCL-1ΔNΔC (amino acids 172-320), a deletion construct that contains the BH3-binding pocket and affords enhanced expression, purity, and stability. […] To identify MCL-1-selective SAHBs, we first screened for recombinant BCL-XLΔC binding, which eliminated PUMA, BID, BIM, BOK, BAX, and BAK SAHBs and then for recombinant BFL1/A1ΔC binding, which eliminated NOXA SAHB.

[4] = target: T1, Mcl-1 ΔNΔC; test: Fluorescence polarization direct binding of FITC-SAHBs to MCL-1ΔNΔC; conditions: FPA
Description: as §2
To measure the binding activity of SAHBs for MCL-1, fluorescence polarization binding assays were performed (FIG. 8). […] Fluorescence polarization was measured on a BMG POLARstar Optima or Spectramax and dissociation constants determined by nonlinear regression analysis using Prism software 4.0 (Graphpad) (FIG. 8). […]

[5] = target: recombinant BCL-XLΔC (Homo sapiens, UniProt Q07817); test: Fluorescence polarization direct binding of FITC-SAHBs to BCL-XLΔC; conditions: FPA
Description: as §2
as §3, with “Recombinant” for “Compounds that bound MCL-1 with high affinity were analyzed for MCL-1 selectivity by measuring SAHB affinities for recombinant BCL-XLΔC, BCL-WΔC and BFL-1/A1ΔC (FIG. 8B). Recombinant”

[6] = tested on: OPM2 multiple myeloma cells; test: Cell viability by MTT assay, OPM2; format: cell-based; conditions: MTT at 24 hours
Description: as §1, with “OPM2 multiple myeloma cells and Jurkat T-cell leukemia were passaged and maintained in RPMI 1640 medium (Invitrogen) supplemented with 10% fetal bovine serum, 100 U/mL penicillin, 100 μg/mL streptomycin, 2 mM L-glutamine, 50 mM HEPES and 50 μM β-mercaptoethanol. For” for “For”

Sequence of recombinant BCL-XLΔC (Q07817 1-209, stated change not applied): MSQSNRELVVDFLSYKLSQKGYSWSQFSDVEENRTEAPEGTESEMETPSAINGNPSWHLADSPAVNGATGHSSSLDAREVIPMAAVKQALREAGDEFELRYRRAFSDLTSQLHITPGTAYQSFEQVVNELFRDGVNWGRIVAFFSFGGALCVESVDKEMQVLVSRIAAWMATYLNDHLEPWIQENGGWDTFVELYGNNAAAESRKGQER
T1 sequence (Q07820 172-327, stated change not applied): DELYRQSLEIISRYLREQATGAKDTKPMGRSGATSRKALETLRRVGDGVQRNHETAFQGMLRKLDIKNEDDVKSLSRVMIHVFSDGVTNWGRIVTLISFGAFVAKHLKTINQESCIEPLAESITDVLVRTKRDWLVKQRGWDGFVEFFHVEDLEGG

Molecule: CC(NC(=O)C(NC(=O)OCc1ccccc1)C(C)C)C(=O)NC(CC(=O)O)C(=O)CF (stereo not drawn) [z-VAD, reference compound] (Cbz-Val-Ala-Asp-CH2F; configuration not given here)
- effect of pan-caspase inhibitor on MCL-1 SAHBD-induced sensitization ([1]; z-VAD 50 μM with MCL-1 SAHBD plus TRAIL/FasL, Jurkat and OPM2 cells): completely abrogated the negative effects on cell viability

Molecule: LEVESXTQLXRFGDKLNFRQKL [NOXA SAHBB] [listing 1 of 2 here]
- Kd [2]: 109 ± 32 nM

Molecule: LEVESXTQLXRFGDKLNFRQKL [NOXA SAHBB] [listing 2 of 2 here]
- binding selectivity among anti-apoptotic proteins [3]: binds MCL-1ΔNΔC exclusively; also recorded: potent and exclusive MCL-1ΔNΔC binding activity
- sensitization of Jurkat cells to FasL ([1]; combined with low dose FasL, MTT at 24 hours): behaved identically to MCL-1 SAHBD; also recorded: sensitized the apoptotic response of Jurkat cells to TRAIL and FasL
- sensitization of Jurkat cells to TRAIL ([1]; combined with low dose TRAIL, MTT at 24 hours): behaved identically to MCL-1 SAHBD; also recorded: sensitized the apoptotic response of Jurkat cells to TRAIL and FasL

Molecule: CC(C)C[C@H](NC(=O)[C@H](C)NC(=O)[C@@H](N)CCCCN)C(=O)N[C@@H](CCC(=O)O)C(=O)N[C@H](C(=O)N[C@@H](CC(C)C)C(=O)N[C@@H](CCCNC(=N)N)C(=O)N[C@@]1(C)CCCC=CCCC[C@@](C)(C(=O)N[C@@H](Cc2ccccc2)C(=O)N[C@@H](CCC(N)=O)C(=O)N[C@@H](CCCNC(=N)N)C(=O)N[C@@H](CC(N)=O)C(=O)N[C@@H](Cc2c[nH]cn2)C(=O)N[C@@H](CCC(=O)O)C(=O)N[C@H](C(=O)N[C@@H](C)C(=O)N[C@@H](Cc2ccccc2)C(N)=O)[C@@H](C)O)NC(=O)[C@H](CC(=O)O)NC(=O)CNC(=O)[C@H](C(C)C)NC1=O)[C@@H](C)O [MCL-1 SAHBA V220F]
- MCL-1ΔNΔC binding activity [4]: binds to both MCL-1 and BCL-XL
- BCL-XL binding [5]: binds to both MCL-1 and BCL-XL

Molecule: CCCC[C@H](NC(=O)[C@H](CCC(=O)O)NC(=O)[C@H](CC(C)C)NC(=O)[C@]1(C)CCCC=CCCC[C@](C)(NC(=O)[C@H](CC(C)C)NC(=O)[C@H](CC(C)C)NC(=O)[C@@H](NC(=O)[C@H](C)NC(=O)[C@H](CO)NC(=O)[C@@H](NC(=O)[C@H](CCC(=O)O)NC(=O)[C@H](C)NC(=O)[C@H](CC(C)C)NC(=O)[C@@H](N)CCCNC(=N)N)C(C)C)C(C)C)C(=O)N[C@@H](CC(C)C)C(=O)NCC(=O)N[C@@H](CC(=O)O)C(=O)N1)C(=O)N[C@H](C(=O)N[C@@H](CCCNC(=N)N)C(N)=O)[C@@H](C)CC [BOK SAHB] (H-RLAEVSAVLL[S5]LGD[S5]LE[Nle]IR-NH2; staple 11-15; C-terminus assumed)
- BCL-XL binding [5]: eliminated
- binding selectivity among anti-apoptotic proteins [3]: significant preference for MCL-1 over the other anti-apoptotics

Molecule: CC[C@H](C)[C@H](N)C(=O)N[C@@H](Cc1c[nH]c2ccccc12)C(=O)N[C@H](C(=O)N[C@@H](C)C(=O)N[C@@H](CCC(N)=O)C(=O)N[C@@H](CCC(=O)O)C(=O)N[C@@H](CC(C)C)C(=O)N[C@@H](CCCNC(=N)N)C(=O)N[C@@]1(C)CCCC=CCCC[C@@](C)(C(=O)N[C@@H](Cc2ccccc2)C(=O)N[C@@H](CC(N)=O)C(=O)N[C@@H](C)C(=O)N[C@@H](Cc2ccc(O)cc2)C(=O)N[C@@H](Cc2ccc(O)cc2)C(=O)N[C@@H](C)C(=O)N[C@@H](CCCNC(=N)N)C(=O)N[C@@H](CCCNC(=N)N)C(N)=O)NC(=O)[C@H](CC(=O)O)NC(=O)CNC(=O)[C@H]([C@@H](C)CC)NC1=O)[C@@H](C)CC [BIM SAHB]
- BCL-XL binding [5]: eliminated
- binding selectivity among anti-apoptotic proteins [3]: pan-anti-apoptotic binder

Molecule: CC[C@H](C)[C@@H]1NC(=O)[C@@](C)(NC(=O)[C@H](C)NC(=O)[C@H](CC(C)C)NC(=O)[C@H](CCC(N)=O)NC(=O)[C@H](CCCNC(=N)N)NC(=O)CNC(=O)[C@@H](NC(=O)[C@@H](N)CCC(N)=O)C(C)C)CCCC=CCCC[C@@](C)(C(=O)N[C@H](C(=O)N[C@@H](CC(N)=O)C(=O)N[C@@H](CCCNC(=N)N)C(=O)N[C@@H](CCCNC(=N)N)C(=O)N[C@@H](Cc2ccc(O)cc2)C(=O)N[C@@H](CC(=O)O)C(N)=O)[C@@H](C)CC)NC(=O)[C@H](CC(=O)O)NC(=O)CNC1=O [BAK SAHB] (H-QVGRQLA[S5]IGD[S5]INRRYD-NH2; staple 8-12; C-terminus assumed)
- BCL-XL binding [5]: eliminated
- binding selectivity among anti-apoptotic proteins [3]: high affinity pan-anti-apoptotic binders

B1: TRAIL: death receptor agonist, extrinsic pathway activator (protein, UniProt P50591 1-281, looked up)
Tumor necrosis factor ligand …: MAMMEVQGGPSLGQTCVLIVIFTVLLQSLCVAVTYVYFTNELKQMQDKYSKSGIACFLKEDDSYWDPNDEESMNSPCWQVKWQLRQLVRKMILRTSEETISTVQEKQQNISPLVRERGPQRVAAHITGTRGRSNTLSSPNSKNEKALGRKINSWESSRSGHSFLSNLHLRNGELVIHEKGFYYIYSQTYFRFQEEIKENTKNDKQMVQYIYKYTSYPDPILLMKSARNSCWSKDAEYGLYSIYQGGIFELKENDRIFVSVTNEHLIDMDHEASFFGAFLVG
- Jurkat cell viability, single agent ([1]; MTT at 24 hours): dose-responsive cytotoxicity; also recorded: induced apoptosis
- OPM2 cell viability, single agent [6]: sensitive to TRAIL; also recorded: induced apoptosis

B2: FasL: death receptor agonist, extrinsic pathway activator (protein, UniProt P48023 130-281, looked up)
Tumor necrosis factor ligand …: QIGHPSPPPEKKELRKVAHLTGKSNSRSMPLEWEDTYGIVLLSGVKYKKGGLVINETGLYFVYSKVYFRGQSCNNLPLSHKVYMRNSKYPQDLVMMEGKMMSYCTTGQMWARSSYLGAVFNLTSADHLYVNVSELSLVNFEESQTFFGLYKL
- Jurkat cell viability, single agent ([1]; MTT at 24 hours): dose-responsive cytotoxicity; also recorded: only Jurkat cells were sensitive to FasL
- OPM2 cell viability, single agent [6]: sensitive to TRAIL but not FasL; also recorded: only Jurkat cells were sensitive to FasL
